Measurements taken from article PMC6154613, “Investigation of the Anti-Leishmania (Leishmania) infantum Activity of Some Natural Sesquiterpene Lactones” (Molecules : A Journal of Synthetic Chemistry and Natural …, 2017).

Key:
[1] = system: L. (L.) infantum promastigotes; assay: Anti-promastigote activity, MTT viability assay; assay type: cell-based, Leishmania (Leishmania) infantum; conditions: for IC50: Leishmania infantum, 48 h incubation, MTT, value (SD)
Description: (§1) L. (L.) infantum (MHOM/BR/1972/LD) promastigotes were maintained in M-199 medium supplemented with 10% heat-inactivated fetal bovine serum (FBS) (Gibco, Thermo Fisher Scientific, São Paulo, Brazil), 0.25% hemin (Sigma-Aldrich), and 5% human urine at 24 °C. Amastigotes were obtained from the spleen of previously infected hamsters by differential centrifugation. Macrophages were collected from the peritoneal cavity of BALB/c mice by washing with RPMI-1640 medium supplemented with 10% FBS, and were maintained at 37 °C in a 5% CO2-humidified incubator. Murine fibroblasts NCTC (clone L929 ATCC) were used to evaluate the cytotoxicity of the tested compounds. NCTC cells were maintained in M-199 medium supplemented with 10% FBS and 20 μg/mL gentamicin at 37 °C in a 5% CO2-humidified incubator.
Compounds were dissolved in DMSO and diluted in M-199 medium in 96-well microplates, with the highest concentration of 150 μM. Promastigotes of L. (L.) infantum in the late growth-phase were seeded at 1 × 10^6/well and incubated with the compounds for 48 h. The viability of cells was determined using the MTT assay. An internal control group was used with 0.5% DMSO (maximal concentration). Miltefosine was used as standard drug.
(§2) Data processing and statistical analyses was done with GraphPad Prism® 5.0 (GraphPad Software, Inc. La Jolla, CA, USA). For determination of antileishmanial activity and NCTC cytotoxicity, the IC50 and CC50 values were calculated after normalization using sigmoidal dose-response curves. The evaluation of statistical significance of multiple pairs was done with a Tukey's range test, which corrects for the increased probability of a type I error during multiple comparison.

[2] = Mammalian cytotoxicity, MTT assay; assay type: cell-based, murine; conditions: mouse, NCTC murine fibroblasts, 48 h, MTT, value (SD); for CC50 at 48 h: NCTC clone L929 fibroblasts
Description: as §1
(§3) NCTC cells were seeded at 6 × 10^4 in 96-well microplates and incubated with the compounds for 48 h. An internal control group was used with 0.5% DMSO (maximal concentration). The quantification of viable cells was assessed by the MTT assay. The selectivity index (SI) was determined using the following equation: SI = CC50 in NCTC cells / IC50 against amastigotes.
as §2

[3] = system: L. (L.) infantum intracellular amastigotes; assay: Activity against intracellular amastigotes in peritoneal macrophages, Giemsa staining and light microscopy; assay type: cell-based, Leishmania (Leishmania) infantum; conditions: for IC50: Leishmania infantum, Peritoneal macrophage, intracellular amastigotes in murine peritoneal macrophages, 120 h, highest concentration 100 μM, value (SD)
Description: as §1
Murine peritoneal macrophages were collected from the peritoneal cavity of BALB/c mice, and the macrophages were seeded at 1 × 10^5/well for 24 h in a 16-well slide. Amastigotes were prepared (as described previously), seeded at a ratio 1:10 (macrophages:amastigotes) and kept at 37 °C in a 5% CO2-humidified incubator for 24 h. Test compounds were incubated to the highest concentration of 100 μM with infected macrophages for 120 h. Miltefosine was used as a standard drug. Subsequently, the cells were fixed with methanol, stained with Giemsa (Merck KGaA, Darmstadt, Germany), and observed using a light microscope. The parasite burden was determined by the number of infected macrophages out of 400 cells.
as §2

[4] = system: Murine fibroblasts NCTC (clone L929 ATCC); assay: Mammalian cytotoxicity, MTT assay; assay type: cell-based; conditions: NCTC cells
Description: as §1, §3, §2

[5] = system: peritoneal macrophages of BALB/c mice; assay: Nitric oxide production in macrophages, Griess assay; assay type: cell-based, Mus musculus; conditions: 3 μM, 24 h, similar levels as LPS
Description: The NO production of macrophages treated with 1 was performed using the Griess assay. Briefly, 1 × 10^5/well peritoneal macrophages of BALB/c mice were seeded overnight in a 96-well plate. Fresh medium containing compound 1 at 3 µM (corresponding to the CC25 value obtained with NCTC cells) or 5 µg/mL LPS (positive control) were added and incubated for 24 h at 37 °C. Afterwards the NO content of each of the cultures’ supernatant was analysed using the Griess assay. The samples’ NO content was determined by means of a standard curve prepared with NaNO2 at concentrations from 0 to 400 μM.

[6] = system: L. (L.) infantum promastigotes; assay: Ultrastructural analysis by transmission electron microscopy; assay type: cell-based, Leishmania (Leishmania) infantum; conditions: 0.5-4 h incubation; 1 μM or 120 μM
Description: Ultrastructural studies were performed with promastigotes treated with compound 1 by TEM. L. (L.) infantum promastigotes in the late growth phase were washed and incubated with 120 μM of 1 (corresponding to the IC99 value obtained with 1 × 10^6 parasites/well) at 2 × 10^7/well in 200 μL M-199 medium. Compound incubation was performed for 0.5, 1, 2, 3, and 4 h under the previously described growth conditions. After centrifugation at 2800 rpm for 10 min, the parasites were fixed with 1 mL glutaraldehyde and the sample processing was performed according to Duarte et al.. The TEM imaging was performed on a JEOL 1011 transmission electron microscope (Peabody, MA, USA).

[7] = system: L. (L.) infantum promastigotes; assay: Mitochondrial membrane potential, rhodamine 123, flow cytometry; assay type: cell-based, Leishmania (Leishmania) infantum; conditions: 6 μM, 1 h, compared with untreated parasites
Description: The Δψm and ROS content of promastigotes treated with compound 1 were determined using the fluorescence probes rhodamine 123 and H2DCFDA (Molecular Probes Inc., Eugene, OR, USA), respectively, and further evaluated by flow cytometry. […] The parasites were incubated in HANKS’ balanced salts solution (HBSS; Sigma-Aldrich, Carlsbad, CA, USA), supplemented with 10 mM D-Glucose, at 26 °C for 1 h. Afterwards the parasites were washed and stained with rhodamine 123 (0.3 μg/mL) or H2DCFDA (5 μM) for 15 min under absence of light. The washed parasites were resuspended in PBS and the fluorescence was measured in a Flow Cytometer Attune Nxt (ThermoFisher Scientific, Waltham, MA, USA) using the forward scatter (FSC, relative cell size) and the side scatter detectors (SSC, cell granulometry or internal complexity), FL1-A (detecting fluorescence emission 530 ± 15 nm), and Attune Nxt software. As control, untreated promastigotes (not stained with Rd123 or H2DCFDA) served to monitor the basal fluorescence. […] Samples were tested in duplicate. Two independent assays were performed.

[8] = system: L. (L.) infantum promastigotes; assay: ROS production, H2DCFDA, flow cytometry; assay type: cell-based, Leishmania (Leishmania) infantum
Description: The Δψm and ROS content of promastigotes treated with compound 1 were determined using the fluorescence probes rhodamine 123 and H2DCFDA (Molecular Probes Inc., Eugene, OR, USA), respectively, and further evaluated by flow cytometry. Briefly, 2 × 10^6 promastigotes/well cultured until the late growth-phase were treated with […] of 1 (corresponding to the IC99 value obtained with 1 × 10^6 parasites/well). The parasites were incubated in HANKS’ balanced salts solution (HBSS; Sigma-Aldrich, Carlsbad, CA, USA), supplemented with 10 mM D-Glucose, at 26 °C for 1 h. Afterwards the parasites were washed and stained with rhodamine 123 (0.3 μg/mL) or H2DCFDA (5 μM) for 15 min under absence of light. The washed parasites were resuspended in PBS and the fluorescence was measured in a Flow Cytometer Attune Nxt (ThermoFisher Scientific, Waltham, MA, USA) using the forward scatter (FSC, relative cell size) and the side scatter detectors (SSC, cell granulometry or internal complexity), FL1-A (detecting fluorescence emission 530 ± 15 nm), and Attune Nxt software. As control, untreated promastigotes (not stained with Rd123 or H2DCFDA) served to monitor the basal fluorescence. […] Samples were tested in duplicate. Two independent assays were performed.

L. (L.) mexicana = system: L. (L.) mexicana; parameters: method as in PMID 18576826; conditions: cited from earlier work
[9] = system: L. (L.) infantum promastigotes plasma membrane; assay: Plasma membrane permeability, SYTOX Green; assay type: cell-based, Leishmania (Leishmania) infantum; conditions: 3 and 6 μM, 60 min, compared with untreated parasites
Description: Late-growth-phase (non-stationary) promastigotes were incubated with the probe SYTOX Green (Molecular Probes Inc., Eugene, OR, USA), as previously described. […] 1 was added at 3 and 6 μM to 1 × 10^6 cells/well, at 24 °C. The fluorescence was measured every 20 min (0–80 min). At the end of the assay (80 min), 0.1% Triton X-100 was added to all wells to obtain the maximum permeabilization of parasites. Fluorescence intensity was determined using a fluorimetric microplate reader (FilterMax F5 Multi-Mode Microplate Reader-Molecular Devices, Sunnyvale, CA, USA) with excitation and emission wavelengths of 485 and 520 nm, respectively. The following internal controls were used during the evaluation: (i) the background fluorescence of the compound at the respective wavelengths; (ii) the possible interference of DMSO; (iii) untreated promastigotes; and (iv) medium without any cells. Samples were tested in duplicate.

[10] = system: axenic amastigotes (extracellular) of L. (L.) amazonensis; parameters: method as in PMID 24913205; conditions: cited from earlier work

SMILES	IC50 [1]	CC50 at 48 h [2]	CC50 [2]	IC50 [3]	other results
C=C1C(=O)O[C@@H]2C[C@@]3(C)CCC[C@H](C)C3=C[C@H]12 [Alantolactone (5), Alantolactone]	9.94 µM	11 µM			
C=C1C(=O)O[C@@H]2[C@H]3C(C)=CC[C@@]34O[C@@]4(C)CC[C@@H]12 [Arglabin (3), Arglabin]	30 µM		39.4 µM	7.33 µM	
C=C1C(=O)O[C@@H]2/C=C(/CO)C3=CC(=O)[C@@](C)(C[C@@H](OC(=O)/C(C)=C/C)[C@@H]12)O3 [Budlein A (7), Budlein A]	28 µM		9.05 µM		
C=C(CO)C(=O)O[C@H]1CC(=C)[C@@H]2C[C@H](O)C(=C)[C@@H]2[C@H]2OC(=O)C(=C)[C@@H]21 [Cynaropicrin (4), Cynaropicrin]	30.6 µM	33.5 µM		6.88 µM	
C=C1C(=O)OC2CC(C)C3C=CC(=O)C3(C)C(OC(C)=O)C12 (centres unmarked) [Helenalin acetate (1), Helenalin acetate]	3.53 µM		8.12 µM	1.15 µM	IC99 value ([1]; promastigotes, 1 × 10^6 parasites/well): 6 µM; CC25 value [4]: 3 µM; infection of macrophages (light microscopy) ([3]; 0.33 µM, Figure S1c): relatively high amastigote number; infection of macrophages (light microscopy) ([3]; 1 µM, Figure S1b): A large number of infected macrophages is visible; infection of macrophages (light microscopy) ([3]; 3 µM, Figure S1a): very few infected macrophages with each very few amastigotes; production of NO [5]: significantly increased the production of NO; ultrastructural alterations (TEM) [6]: intense cytoplasmatic vacuolization, formation of autophagosomes, swelling of the mitochondrion, and chromatin decondensation; decrease of Rd123 fluorescence (Δψm) [7]: 60%; ROS production (H2DCFDA) ([8]; compound 1, 1 h of treatment): no alteration of ROS; alteration of the plasma membrane (L. (L.) mexicana; L. (L.) mexicana promastigotes, long-term treatment): no alteration of the plasma membrane; SYTOX Green fluorescence (plasma membrane permeability) [9]: No significant increase of SYTOX Green fluorescence
C=C1C(=O)O[C@H]2C[C@@H](C)[C@@H]3C=CC(=O)[C@@]3(C)[C@H](O)[C@H]12 [Mexicanin I (2), Mexicanin I]	4.89 µM		9.2 µM	1.73 µM	activity against L. (L.) mexicana (L. (L.) mexicana): activity against L. (L.) mexicana at low concentrations
CCCCCCCCCCCCCCCCOP(=O)([O-])OCC[N+](C)(C)C [Miltefosine, reference compound]	16.7 µM				
C=C1C(=O)O[C@H]2[C@H]1CC/C(C)=C/CC[C@@]1(C)O[C@@H]21 [Parthenolide (6), Parthenolide]	59.1 µM	58.2 µM		89.2 µM	effect on mitochondrial membrane potential [10]: mitochondrial depolarization
C=C1C(=O)O[C@@H]2C[C@@H](C)[C@@H]3C=CC(=O)[C@@]3(C)[C@@H](O)[C@H]12 [helenalin, reference compound]					activity against L. (L.) mexicana (L. (L.) mexicana): activity against L. (L.) mexicana at low concentrations
CC[C@H]1/C=C/C=C/C[C@@H](C)[C@H](O)[C@@](C)(O)C(=O)[C@@H](C)[C@H](O)[C@@H](C)C(=O)[C@@H](C)[C@H](O)[C@@H](C)/C=C/C(=O)O[C@@H]2[C@H](C)[C@H](CC1)O[C@]1(CC[C@H](C)[C@H](C[C@@H](C)O)O1)[C@H]2C [oligomycin, reference compound]					ROS production (H2DCFDA) ([8]; oligomycin 20 μM, positive control): increased the ROS production over time
